Experimental data taken from patent publication US10196556B2, “Surfactant composition” (RHODIA OPERATIONS, priority 2012, dated 2019).
Like-named read-outs stand apart in the source and are kept apart here.

Test: Static foam test (Waring blender), foam persistence
Type: physicochemical
Settings: for Foam Volume: ambient temperature; for Foam Quality (%): from flash foam volume and 200 ml solution volume
Description: In order to perform static foam testing, 10% aqueous stock solutions of the surfactant compositions were prepared in distilled water. These were added to 10% w/w aqueous sodium chloride solution, such that the concentration of the surfactant in the brine was 1000 ppm.
Surfactant compositions according to the invention were benchmarked against the individual surfactants. A Waring type blender was used.
The flash foam volumes were measured by taking 200 ml of a surfactant composition according to the invention, subjecting it to high shear for 30 seconds at ambient temperature (20° C.) and then transferring the foam immediately to a measuring cylinder (1000 ml) for measurement. This initial volume was the flash volume. The foam and liquid volume was monitored for a further 10 minutes.
The ‘half-life’ of the foam was defined as the time taken for 100 ml of fluid to drain from the foam. Without being bound by theory, an increase in the half-life corresponds to a reduction in the liquid drainage rate and reflects the texture of the foam. Denser foams, as a rule, tend to take longer to drain and therefore are more persistent.
Static foam tests are a rapid and relatively straightforward method to screen the foam performance of surfactants. The method provides information on the stability and quality, i.e. texture (structure), of the foam produced in a Waring blender. The mechanical properties of the foam lamellae and foam structure are determined to some extent by the packing of the surfactant molecules at the gas/liquid interface. The foam structure influences liquid drainage rates and therefore, the persistence or stability of the foam.
Surfactant solutions (200 ml) were subjected to high shear for 30 seconds at ambient temperatures and the foam transferred immediately to a measuring cylinder (1000 ml). The foam and liquid volume was monitored for a further 10 minutes. 10% active aqueous stock solutions of the surfactants were prepared in distilled water and these were added to 10% w/w aqueous sodium chloride solution. The concentration of the surfactant in the brine was 1000 ppm.
The initial foam volume is also called the ‘flash’ foam.

[1] = 0 s (flash foam), 1000 ppm surfactant in 10% w/w NaCl
[2] = 120 s, 1000 ppm surfactant in 10% w/w NaCl
[3] = 240 s, 1000 ppm surfactant in 10% w/w NaCl
[4] = 360 s, 1000 ppm surfactant in 10% w/w NaCl
[5] = 480 s, 1000 ppm surfactant in 10% w/w NaCl
[6] = 600 s, 1000 ppm surfactant in 10% w/w NaCl
[7] = 1000 ppm surfactant in 10% w/w NaCl
[8] = time for 100 ml of fluid to drain from the foam, 1000 ppm surfactant in 10% w/w NaCl

Foam Volume [1] [mL] | Foam Volume [2] [mL] | Foam Volume [3] [mL] | Foam Volume [4] [mL] | Foam Volume [5] [mL] | Foam Volume [6] [mL] | Foam Quality (%) [7] [%] | Half-life [8] [s] | Half-life [s] | Substance
670 | 524 | 486 | 430 | 360 | 350 | 70.1 | 270 | – | Lauramidopropyl betaine [Mackam LMB]
600 | 406 | 350 | 280 | 240 | 210 | 66.7 | 192 | – | Lauramidopropyl hydroxysultaine [Mackam LSB-50]
– | – | – | – | – | – | – | – | 24 | Sodium hydroxypropyl sulfonate lauryl glucose crosspolymer [PolySugaNate 160P]
